Measurements taken from ChEMBL document CHEMBL3832050, “DailyMed|setid=da574350-be6b-49f3-b2ef-64da06af9b9d | PAMDRONATE DISODIUM - pamodronate disodium injection, solution|GENERAMEDIX, INC”.

Key:
[1] = (§1) Mean pharmacokinetic parameters for Pamidronate after intravenous infusion of 30, 60 and 90 mg of Pamidronate disodium for 4 hours and 90 mg for 24 hours in cancer patients, 6 in each group.; format: ADME, organism-based; parameters: dose 90 mg, dose 30 mg, dose 60 mg, route iv; conditions: human, in vivo, dosed compound id 8, dosed compound name PAMIDRONATE DISODIUM, gender male and female, regimen Single dose, route iv, study dosing duration 4 hours
Homo sapiens = test: as §1; format: ADME, organism-based; parameters: dose 90 mg, dose 30 mg, dose 60 mg, route iv; conditions: in vivo, iv, dosed compound id 8, dosed compound name PAMIDRONATE DISODIUM, gender male and female, regimen Single dose; for Excretion: tissue Urine
[2] = dose 60 mg, study dosing duration 4 hours, tissue Plasma
[3] = dose 90 mg, study dosing duration 4 hours, tissue Plasma
[4] = dose 90 mg, study dosing duration 24 hours, tissue Plasma

NCCC(O)(P(=O)([O-])O)P(=O)([O-])O.[Na+].[Na+]
dose excreted ([1]; iv, at 30 mg, tissue Urine, read-out: Excretion): 43.9% | clearance ([1]; dose 30 mg, tissue Plasma): 136 mL/min | CL renal ([1]; dose 30 mg, tissue Plasma, read-out: CL_renal): 58 mL/min | Excretion (Homo sapiens; at 60 mg, study dosing duration 4 hours): 47.4% | Excretion (Homo sapiens; at 90 mg, study dosing duration 4 hours): 45.3% | Excretion (Homo sapiens; at 90 mg, study dosing duration 24 hours): 47.5% | CL (Homo sapiens; [2]): 88 mL/min | CL_renal (Homo sapiens; [2]): 42 mL/min | CL (Homo sapiens; [3]): 103 mL/min | CL_renal (Homo sapiens; [3]): 44 mL/min | CL (Homo sapiens; [4]): 101 mL/min | CL_renal (Homo sapiens; [4]): 52 mL/min | Cmax (Homo sapiens; study dosing duration 24 hours, tissue Plasma): 1380 ng/mL
